Data: ChEMBL document CHEMBL1201862, “PubChem BioAssay data set” (2004)
Values joined by “and” are separate entries in the source; they are usually repeats but may differ in a detail not shown here. Equal values may be shown once.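 Protocol summary: plate cells (96-well), add compound at 5 concentrations, incubate 48 h, interpolate endpoints linearly. GI50 is the concentration that inhibits growth by half.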 Active and inactive are the calls of the source. No stated cut-off is given here; in the data, active = GI50 up to about 1.1 µM and inactive = higher.

Tests used:
Assay in all cases: NCI anticancer screen, dose series, 48 h
KM12 = tested on: KM12
SR = tested on: SR
SW-620 = tested on: SW-620
NCI-H460 = tested on: NCI-H460
KM-20L2 = tested on: KM-20L2
ACHN = tested on: ACHN
OVCAR-5 = tested on: OVCAR-5
TK-10 = tested on: TK-10
HCC 2998 = tested on: HCC 2998
OVCAR-8 = tested on: OVCAR-8
T47D = tested on: T47D
A498 = tested on: A498
SNB-78 = tested on: SNB-78
HOP-62 = tested on: HOP-62
A549 = tested on: A549
BT-549 = tested on: BT-549
SK-MEL-2 = tested on: SK-MEL-2
XF498 = tested on: XF498
NCI-H522 = tested on: NCI-H522
Malme-3M = tested on: Malme-3M
RXF 393 = tested on: RXF 393
Hs-578T = tested on: Hs-578T
DMS-114 = tested on: DMS-114
OVCAR-4 = tested on: OVCAR-4
SF-539 = tested on: SF-539
SK-MEL-28 = tested on: SK-MEL-28
SK-OV-3 = tested on: SK-OV-3
DU-145 = tested on: DU-145
LOX IMVI = tested on: LOX IMVI
MDA-MB-231 = tested on: MDA-MB-231
EKVX = tested on: EKVX
DLD-1 = tested on: DLD-1
U-251 = tested on: U-251
CCRF-CEM = tested on: CCRF-CEM
MDA-MB-435 = tested on: MDA-MB-435
COLO 205 = tested on: COLO 205
HL-60 = tested on: HL-60
NCI-H226 = tested on: NCI-H226
M14 = tested on: M14
HT-29 = tested on: HT-29
M19-MEL = tested on: M19-MEL
RPMI-8226 = tested on: RPMI-8226
OVCAR-3 = tested on: OVCAR-3
786-0 = tested on: 786-0
UACC-257 = tested on: UACC-257
DMS-273 = tested on: DMS-273
K562 = tested on: K562
PC-3 = tested on: PC-3
MDA-N = tested on: MDA-N
HOP-18 = tested on: HOP-18
SNB-19 = tested on: SNB-19
HCT-116 = tested on: HCT-116
HOP-92 = tested on: HOP-92
SN12C = tested on: SN12C
UO-31 = tested on: UO-31
SNB-75 = tested on: SNB-75
HCT-15 = tested on: HCT-15
SK-MEL-5 = tested on: SK-MEL-5
CAKI-1 = tested on: CAKI-1
NCI/ADR-RES = tested on: NCI/ADR-RES
SF-295 = tested on: SF-295
IGROV-1 = tested on: IGROV-1
MCF7 = tested on: MCF7
NCI-H23 = tested on: NCI-H23
UACC-62 = tested on: UACC-62
MOLT-4 = tested on: MOLT-4
SF-268 = tested on: SF-268

Q: Which results are given for `OC(CBr)C(O)C(O)C(O)CBr` (stereo not drawn)?
A: GI50 (KM12): > 100 µM (inactive) and > 60 µM (inactive); GI50 (SR): > 100 µM (inactive); GI50 (SW-620): > 87.7 µM (inactive); GI50 (NCI-H460): 8.3 µM (inactive) and 10.7 µM (inactive); GI50 (KM-20L2): > 100 µM (inactive); GI50 (ACHN): 8.09 µM (inactive); GI50 (OVCAR-5): > 57 µM (inactive); GI50 (TK-10): > 100 µM (inactive); GI50 (HCC 2998): > 100 µM (inactive) and > 72.8 µM (inactive); GI50 (OVCAR-8): > 100 µM (inactive) and 59.4 µM (inactive); GI50 (T47D): > 100 µM (inactive); GI50 (A498): > 61.9 µM (inactive); GI50 (SNB-78): > 100 µM (inactive); GI50 (HOP-62): 28.1 µM (inactive) and 28.3 µM (inactive); GI50 (A549): 19 µM (inactive) and 36.9 µM (inactive); GI50 (BT-549): 28.2 µM (inactive); GI50 (SK-MEL-2): > 100 µM (inactive) and > 66.2 µM (inactive); GI50 (XF498): 80.5 µM (inactive); GI50 (NCI-H522): > 67.1 µM (inactive) and > 48.6 µM (inactive); GI50 (Malme-3M): > 100 µM (inactive) and > 85.5 µM (inactive); GI50 (RXF 393): > 100 µM (inactive) and > 88.9 µM (inactive); GI50 (Hs-578T): > 100 µM (inactive); GI50 (DMS-114): 42.4 µM (inactive); GI50 (OVCAR-4): > 100 µM (inactive) and > 81.5 µM (inactive); GI50 (SF-539): 46.7 µM (inactive) and 49.8 µM (inactive); GI50 (SK-MEL-28): > 92.7 µM (inactive); GI50 (SK-OV-3): > 55.1 µM (inactive) and > 53.1 µM (inactive); GI50 (DU-145): 12.7 µM (inactive); GI50 (LOX IMVI): 51.6 µM (inactive) and 40.9 µM (inactive); GI50 (MDA-MB-231): > 100 µM (inactive); GI50 (EKVX): > 75.7 µM (inactive); GI50 (DLD-1): > 100 µM (inactive); GI50 (U-251): > 43.2 µM (inactive) and > 63.8 µM (inactive); GI50 (CCRF-CEM): 14.3 µM (inactive) and > 21.6 µM (inactive); GI50 (MDA-MB-435): > 61.2 µM (inactive); GI50 (COLO 205): > 53.6 µM (inactive); GI50 (HL-60): 8.73 µM (inactive) and 13.3 µM (inactive); GI50 (NCI-H226): > 100 µM (inactive) and > 74.1 µM (inactive); GI50 (M14): 28.1 µM (inactive); GI50 (HT-29): > 100 µM (inactive) and > 56 µM (inactive); GI50 (M19-MEL): > 100 µM (inactive); GI50 (RPMI-8226): > 65.8 µM (inactive) and > 38.5 µM (inactive); GI50 (OVCAR-3): > 55.1 µM (inactive); GI50 (786-0): 13.7 µM (inactive); GI50 (UACC-257): > 69 µM (inactive) and > 64 µM (inactive); GI50 (DMS-273): 26.6 µM (inactive); GI50 (K562): > 87.9 µM (inactive); GI50 (PC-3): > 81.1 µM (inactive); GI50 (MDA-N): > 45.9 µM (inactive); GI50 (HOP-18): > 100 µM (inactive)

Q: Which results are given for `CCCCS(=O)(=O)Nc1ccc(Nc2c3ccccc3nc3ccccc23)c(OC)c1`?
A: GI50 (SNB-19): 1.94 µM (inactive); GI50 (KM12): 3.45 µM (inactive); GI50 (SW-620): 0.675 µM (active); GI50 (NCI-H460): 86.3 nM (active); GI50 (KM-20L2): 3.14 µM (inactive); GI50 (OVCAR-5): 13.7 µM (inactive); GI50 (HCC 2998): 3.21 µM (inactive); GI50 (OVCAR-8): 2 µM (inactive); GI50 (HCT-116): 1.73 µM (inactive); GI50 (A498): 2.05 µM (inactive); GI50 (SNB-78): 5.5 µM (inactive); GI50 (HOP-62): 1.86 µM (inactive); GI50 (HOP-92): 2.15 µM (inactive); GI50 (A549): 232 nM (active); GI50 (SN12C): 0.828 µM (active); GI50 (UO-31): 1.5 µM (inactive); GI50 (SK-MEL-2): 16.9 µM (inactive); GI50 (XF498): 2.19 µM (inactive); GI50 (SNB-75): 1.52 µM (inactive); GI50 (NCI-H522): 5.33 µM (inactive); GI50 (HCT-15): 1.71 µM; GI50 (Malme-3M): 2.21 µM (inactive); GI50 (RXF 393): 4.39 µM (inactive); GI50 (SK-MEL-5): 5.2 µM (inactive); GI50 (CAKI-1): 0.574 µM (active); GI50 (NCI/ADR-RES): 5.36 µM (inactive); GI50 (OVCAR-4): 5.6 µM (inactive); GI50 (SF-539): 1.08 µM (active); GI50 (SK-MEL-28): 5.74 µM (inactive); GI50 (SK-OV-3): 5.07 µM (inactive); GI50 (LOX IMVI): 1.26 µM (inactive); GI50 (EKVX): 1.91 µM (inactive); GI50 (DLD-1): 7.6 µM (inactive); GI50 (U-251): 773 nM (active); GI50 (SF-295): 0.902 µM (active); GI50 (IGROV-1): 5.57 µM (inactive); GI50 (CCRF-CEM): 338 nM (active); GI50 (COLO 205): 5.78 µM (inactive); GI50 (HL-60): 183 nM (active); GI50 (MCF7): 1.13 µM (inactive); GI50 (NCI-H226): 881 nM (active); GI50 (HT-29): 1.67 µM (inactive); GI50 (M19-MEL): 4.61 µM (inactive); GI50 (RPMI-8226): 1.74 µM (inactive); GI50 (NCI-H23): 1.11 µM (active); GI50 (UACC-62): 1.78 µM (inactive); GI50 (OVCAR-3): 6.98 µM (inactive); GI50 (UACC-257): 6 µM (inactive); GI50 (MOLT-4): 0.0718 µM (active); GI50 (DMS-273): 0.395 µM (active); GI50 (K562): 2.51 µM (inactive); GI50 (SF-268): 2.25 µM (inactive); GI50 (HOP-18): 7.52 µM (inactive)
